Here are results for eleven molecules from patent publication US9873696B2, “Neprilysin inhibitors” (THERAVANCE BIOPHARMA R&D IP, LLC, priority 2010, dated 2018).

For this assay, the target named is T1, human NEP (Homo sapiens, UniProt P08473).
T1 construct: purchased R&D Systems, Minneapolis, Minn; 1182-ZN
Briefly: In vitro enzyme inhibition assay at human NEP (Assay 1). The class given is biochemical. The following applies: recombinant enzyme, fluorogenic peptide substrate, 37° C. In a few lines: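 Recombinant enzyme preincubated with compound 30 min at 37 °C, then 10 μM Mca-D-Arg-Arg-Leu-Dap-(Dnp)-OH added in 50 mM HEPES pH 7.5, 100 mM NaCl, 0.01% Tween-20, 10 μM ZnSO4; stopped after 20 min with acetic acid. Fluorescence read at 320/405 nm; Ki from nonlinear fit of v=v0/[1+(I/K′)], reported as pKi.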

Structures are written as SMILES.

T1 sequence (P08473 whole entry): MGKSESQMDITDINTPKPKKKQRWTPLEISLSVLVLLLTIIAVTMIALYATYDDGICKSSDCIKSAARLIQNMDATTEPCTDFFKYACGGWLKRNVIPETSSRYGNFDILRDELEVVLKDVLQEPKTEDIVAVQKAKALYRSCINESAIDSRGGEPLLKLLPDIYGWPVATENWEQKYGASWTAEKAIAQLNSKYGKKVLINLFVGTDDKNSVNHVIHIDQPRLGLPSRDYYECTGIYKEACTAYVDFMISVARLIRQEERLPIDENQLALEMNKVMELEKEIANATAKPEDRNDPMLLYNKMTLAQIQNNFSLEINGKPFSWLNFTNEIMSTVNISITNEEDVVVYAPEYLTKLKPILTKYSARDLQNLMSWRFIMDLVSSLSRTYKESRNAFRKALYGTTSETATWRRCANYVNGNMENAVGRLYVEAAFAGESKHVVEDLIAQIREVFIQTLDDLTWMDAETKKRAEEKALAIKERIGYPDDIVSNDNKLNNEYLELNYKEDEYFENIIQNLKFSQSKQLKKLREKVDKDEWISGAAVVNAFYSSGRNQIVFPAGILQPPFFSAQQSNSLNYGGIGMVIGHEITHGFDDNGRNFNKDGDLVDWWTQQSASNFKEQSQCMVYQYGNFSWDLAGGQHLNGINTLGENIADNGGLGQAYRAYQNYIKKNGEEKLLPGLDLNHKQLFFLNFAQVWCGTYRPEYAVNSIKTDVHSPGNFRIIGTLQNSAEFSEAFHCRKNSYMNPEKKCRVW

In the case of `COc1ccccc1-c1cc(C(=O)NN(Cc2ccc(-c3cc(Cl)ccc3F)cc2)C[C@@H](O)C(=O)O)[nH]n1` [Example 8-39, (R)-3-{N-(5′-Chloro-2′-fluoro-biphenyl-4-ylmethyl)-N′-[5-(2-methoxy-phenyl)-2H-pyrazole-3-carbonyl]-hydrazino}-2-hydroxy-propionic acid], the Ki is at most 1 nM.

`CC(C)(O)c1cc(C(=O)NN(Cc2ccc(-c3cc(Cl)ccc3F)cc2)C[C@@H](O)C(=O)O)[nH]n1` [Example 8-40, (R)-3-{N-(5′-Chloro-2′-fluoro-biphenyl-4-ylmethyl)-N′-[5-(1-hydroxy-1-methyl-ethyl)-2H-pyrazole-3-carbonyl]-hydrazino}-2-hydroxy-propionic acid]: the inhibitory constant (Ki) is at most 1 nM.

Turning to `O=C(NN(Cc1ccc(-c2cc(Cl)ccc2F)cc1)C[C@@H](O)C(=O)O)c1cc(-c2cc(Cl)ccc2Cl)n[nH]1` [Example 8-41, (R)-3-{N-(5′-Chloro-2′-fluoro-biphenyl-4-ylmethyl)-N′-[5-(2,5-dichloro-phenyl)-2H-pyrazole-3-carbonyl]-hydrazino}-2-hydroxy-propionic acid], the Ki is at most 1 nM.

On to `CCCCc1cc(C(=O)NN(Cc2ccc(-c3cc(Cl)ccc3F)cc2)C[C@@H](O)C(=O)O)[nH]n1` [Example 8-42, (R)-3-[N′-(5-Butyl-2H-pyrazole-3-carbonyl)-N-(5′-chloro-2′-fluoro-biphenyl-4-ylmethyl)-hydrazino]-2-hydroxy-propionic acid], for which the Ki was at most 1 nM.

On to `O=C(NN(Cc1ccc(-c2cc(Cl)ccc2F)cc1)C[C@@H](O)C(=O)O)c1cc(C2CC2)n[nH]1` [Example 8-43, (R)-3-[N-(5′-Chloro-2′-fluoro-biphenyl-4-ylmethyl)-N′-(5-cyclopropyl-2H-pyrazole-3-carbonyl)-hydrazino]-2-hydroxy-propionic acid], for which the Ki is at most 1 nM.

Consider `CC(C)c1cc(C(=O)NN(Cc2ccc(-c3cc(Cl)ccc3F)cc2)C[C@@H](O)C(=O)O)[nH]n1` [Example 8-44, (R)-3-[N-(5′-Chloro-2′-fluoro-biphenyl-4-ylmethyl)-N′-(5-isopropyl-2H-pyrazole-3-carbonyl)-hydrazino]-2-hydroxy-propionic acid], for which the Ki is at most 1 nM.

Regarding `CC(=O)c1cc(C(=O)NN(Cc2ccc(-c3cc(Cl)ccc3F)cc2)C[C@H](O)C(=O)O)[nH]n1` [Example 8-45, (S)-3-[N′-(5-Acetyl-2H-pyrazole-3-carbonyl)-N-(5′-chloro-2′-fluoro-biphenyl-4-ylmethyl)-hydrazino]-2-hydroxy-propionic acid], the Ki is at most 1 nM.

`CC(=O)c1cc(C(=O)NN(Cc2ccc(-c3cc(Cl)ccc3C)cc2)C[C@H](O)C(=O)O)[nH]n1` [Example 8-47, (S)-3-[N′-(5-Acetyl-2H-pyrazole-3-carbonyl)-N-(5′-chloro-2′-methyl-biphenyl-4-ylmethyl)-hydrazino]-2-hydroxy-propionic acid]: the Ki was 1.26 to 10 nM.

As to `CC(=O)c1cc(C(=O)NN(Cc2ccc(-c3cc(Cl)ccc3Cl)cc2)C[C@H](O)C(=O)O)[nH]n1` [Example 8-48, (S)-3-[N′-(5-Acetyl-2H-pyrazole-3-carbonyl)-N-(2′,5′-dichloro-biphenyl-4-ylmethyl)-hydrazino]-2-hydroxy-propionic acid], the Ki was 1.26 to 10 nM.

With `COc1ccccc1C(=O)Nc1cc(C(=O)NN(Cc2ccc(-c3cc(Cl)ccc3F)cc2)C[C@@H](O)C(=O)O)[nH]n1` [Example 8-49, (R)-3-{N-(5′-Chloro-2′-fluoro-biphenyl-4-ylmethyl)-N′-[5-(2-methoxy-benzoylamino)-2H-pyrazole-3-carbonyl]-hydrazino}-2-hydroxy-propionic acid], the Ki was at most 1 nM.

`O=C(NN(Cc1ccc(-c2cc(Cl)ccc2F)cc1)C[C@@H](O)C(=O)O)c1cc(-c2cnccn2)[nH]n1` [Example 8-50, (R)-3-[N-(5′-Chloro-2′-fluoro-biphenyl-4-ylmethyl)-N′-(5-pyrazin-2-yl-1H-pyrazole-3-carbonyl)-hydrazino]-2-hydroxy-propionic acid]: the Ki is at most 1 nM.

Broadly, the Ki is the equilibrium dissociation constant of an inhibitor or competing ligand from its target.
